These results are taken from article PMC11091976, “Shorter Peptide Nucleic Acid Probes Improve Affibody-Mediated Peptide Nucleic Acid-Based Pretargeting” (ACS Pharmacology & Translational Science, 2024).

For data set [1], the system named is SKOV-3 xenografts. Put plainly: Biodistribution with preinjection of primary agent (pretargeting). More on the design: species or system BALB/C nu/nu mice. To be noted: mouse, in vivo. The source says:
Biodistribution measurements of all radiolabeled PNA-based probes indicated rapid clearance from the blood as well as from other organs and tissues, which is a crucial requirement for the success of in vivo pretargeting strategies.
Animal studies were planned in agreement with EU Directive 2010/63/EU for animal experiments and Swedish national legislation concerning the protection of laboratory animals and were approved by the Ethics Committee for Animal Research in Uppsala, Sweden (animal permission C4/16). HER2-positive xenografts were implanted by subcutaneous injection of 10^7 SKOV-3 cells in the right hind legs of female BALB/C nu/nu mice. Three weeks after implantation, mice were randomized into 8 groups, with 4 mice in each group. At the time of the experiment, the average animal weight was 20 ± 1 g. The average tumor weight was 0.26 ± 0.14 g. The mice were euthanized at predetermined time points by overdose of Ketamine/Xylazine anesthesia, followed by heart puncture. The organs of interest such as blood, lung, liver, spleen, kidney, muscle, bone, and tumor were collected, weighed, and subsequently their radioactivity was measured. Organs and tumor uptake were calculated as the percentage of the injected dose per gram of the sample (%ID/g). […]

Data set [2] in a line: Solubility of secondary probes in labeling buffer. The format is physicochemical. To be noted: 0.2 M NH4Ac, pH 5.5, 25 °C. How it is done:
However, as we moved to shorter PNA oligomers, solubility saw a substantial, nonlinear increase. […] For example, at 25 °C, the maximum soluble concentration of HP17 (12-mer) was around 6 μM. […]
pH 5.5 at 25°C. Dilution series of HPLC-purified and lyophilized secondary probes (1, 3, 6, 9, 13, 26, 39, 52 and 65 µM) for […]
samples were heated at 95°C for five minutes and concentration of the soluble fraction was determined by UV absorption at 260 nm before (grey bars), and after (black bars) an 18-hour static incubation at 25°C. Duplicates were prepared of all samples and the data is presented as the mean ± SD. The maximum soluble concentration of each probe, indicated in panels A-E as a dotted line, was defined as the highest concentration at which at least 95% is still in the soluble fraction after an 18-hour incubation at 25°C. PNA-aggregates are temperature-labile, as exemplified in panel C for 82 µM HP17.
After an 18-hour incubation 25°C, 6 µM is left in the soluble fraction (left black bar) but heating the sample at 95 °C for five minutes completely redissolved HP17 aggregates into solution (right black bar).
(1 picture or pasted object on this page, not shown here)
Supplementary Material and methods
Solubility of secondary probes
HPLC-purified and freeze-dried secondary probes were resuspended in 10 mM NaAc, pH 3.5-3.6 and freeze-dried in smaller aliquots. The secondary probes were re-dissolved in 0.2 M NH4Ac, pH 5.5, and the samples were heated at 95 °C for five minutes to ensure complete dissolvement. Dilution series of secondary probes (1, 3, 6, 9, 13, 26, 39, 52 and 65 μM) for […]
NH4Ac, pH 5.5. The samples were then left for an 18-hour static incubation at 25 C, before being centrifugated at 21,100 x g for 5 minutes on a standard benchtop centrifuge (Eppendorf). The supernatants were transferred to fresh 1.5 mL Eppendorf-tubes, and the […]

The subject of data set [3] is HP9. Put plainly: UV melting of PNA:PNA duplex with primary probe HP9. The format is physicochemical. To be noted: UV 260 nm, 20-95 °C at 1 °C/min, 5 μM each probe, 10 mM phosphate buffer, 10 mM KCl, pH 7.4. The procedure:
The melting temperatures of secondary probes after duplex formation with primary probes were also measured by monitoring the absorbance at 260 nm as a function of temperature (see Figure S23). All probe pairs had melting temperatures well above 37 °C (body temperature) and ranged from 51 °C for the HP6:HP19 pair with 6 complementary bases to 82 °C for the previously studied HP15:HP18 pair with 15 complementary bases (see Figure 3B and Table 2). […] This secondary structure is typically adopted by antiparallel and L-amino acid-modified PNA–PNA duplexes at neutral pH.[49]
Figure S23: Normalized temperature melting profiles from 20–95°C for different primary and secondary probe pairs. UV melting curves at 260 nm. (A) HP15 (15-mer) toward secondary 15-, 12- and 9-mers. (B) HP12 (12-mer) toward secondary 12-, 9-, 8-, 7- and 6-mers. (C) HP9 (9-mer) toward secondary 9-, 8-, 7- and 6-mers. (D) HP6 (6-mer) toward secondary 6-mer.
Concentrations of duplexes in A–D are 5 μM in 10 mM […] with 10 mM KCl at pH 7.4.
(also on this page, place not known: Fraction melted Fraction meltedFraction melted Fraction melted) […]
Supplementary Material and methods […]
Biophysical characterization of PNA:PNA duplexes using CD Spectroscopy and […]
Circular dichroism (CD) and UV melts of PNA:PNA duplexes were measured on a CD spectrometer (Applied Photophysics, Leatherhead, UK) with Peltier temperature control and an external temperature probe. RP-HPLC purified and lyophilized PNA probes were dissolved in 10 mM phosphate buffer with 10 mM KCl at pH 7.4. Samples contained both primary and complementary secondary PNA probes at a final concentration of 5 µM for each probe. These samples were initially heated to 95°C for five minutes, allowed to cool to room temperature, and then transferred to a quartz cuvette with a 1.0 cm path length. A temperature probe was inserted into the solution through the cuvette's rubber cap. […]
from 20°C to 95°C with a 1°C/min temperature gradient. Simultaneously, the UV absorbance at 260 nm was recorded as a function of temperature. Fraction melted data was calculated […]
Fraction melted = 1 ― UVds― UVss , where UVss and UVds are the UV absorbances at 95°C and 20°C, respectively. The melting temperature (Tm) was determined as the maximum of the first derivative of the melting curve and was computed using the Global 3 analysis software (Applied Photophysics, […]
CD spectra in the range of 200–300 nm were recorded for all hybridized PNA:PNA pairs at 20°C before and after the UV melting experiments. All CD spectra were baseline subtracted and presented as an average of five scans.

The compound `NC(=O)[C@H](Cc1ccc(O)cc1)NC(=O)[C@H](CCC(=O)O)NC(=O)[C@H](CCC(=O)O)NC(=O)CN(CCNC(=O)CN(CCNC(=O)CN(CCNC(=O)CN(CCNC(=O)CN(CCNC(=O)CN(CCNC(=O)CN(CCNC(=O)CN(CCNC(=O)CN(CCNC(=O)[C@H](CO)NC(=O)[C@H](CO)NC(=O)COCCOCCNC(=O)CN1CCN(CC(=O)O)CCN(CC(=O)O)CCN(CC(=O)O)CC1)C(=O)Cn1cnc2c(N)ncnc21)C(=O)Cn1cnc2c(N)ncnc21)C(=O)Cn1ccc(N)nc1=O)C(=O)Cn1cnc2c(N)ncnc21)C(=O)Cn1ccc(N)nc1=O)C(=O)Cn1ccc(N)nc1=O)C(=O)Cn1cnc2c(N)ncnc21)C(=O)Cn1cnc2c(=O)[nH]c(N)nc21)C(=O)Cn1cnc2c(=O)[nH]c(N)nc21` [[^177Lu]Lu-HP16, metal not drawn] had a tumor-associated activity in data set [1] of 1.91 ± 0.831 %ID/g.

Usually Tm stands for the temperature at which the thermal transition is half complete. In the case of “DOTA-AEEA-SS-aacaccagg-EEY-NH2 [HP16, 9-mer secondary PNA probe with DOTA]”, the “increase in solubility compared to the 15-mer HP18” value in data set [2] is reported as roughly 10 fold. This compound also returned a maximum soluble concentration in data set [2] (heated 95 °C 5 min, 18-h static incubation, centrifugation, UV 260 nm of supernatant, highest concentration with at least 95% still soluble, duplicates) of 26 µM. In addition, the Tm in data set [3] stood at 65 °C.
